Assay results taken from patent US20250367129A1, “Lipid Compounds and Uses Thereof” (Pfizer Inc., priority 2022, published 2025).

Key:
[1] = LNP size and polydispersity index by Malvern Zetasizer dynamic light scattering (CA HA modFlu mRNA LNPs); format: physicochemical; conditions: DLS; for Size (nm): LNP of the ionizable lipid:cholesterol:DSPC:ALC-0159 about 46.3:42.7:9.4:1.6, N:P about 6:1, CA HA modFlu mRNA; for PDI: LNP with CA HA modFlu mRNA
Procedure: (§1) Lipid nanoparticles were prepared and tested according to the general procedures described in U.S. Pat. No. 9,737,619 (PCT Pub. No. WO2015/199952) and U.S. Pat. No. 10,166,298 (PCT Pub. No. WO 2017/075531) and PCT Pub. No. WO2020/146805. The novel ionizable lipids of the invention, cholesterol, distearoylphosphatidylcholine (DSPC) and ALC-0159 2-[(polyethylene glycol)-2000]-N,N ditetradecylacetamide were solubilized in ethanol at a molar ratio of about 46.3:42.7:9.4:1.6. Lipid nanoparticles were made by mixing the lipids containing organic phase with the mRNA containing aqueous phase using an N:P ratio of about 6:1. The mRNA was diluted in buffer. Syringe pumps were used to mix the ethanolic lipid solution with the mRNA aqueous solution. The ethanol was then removed, and the external buffer replaced with another buffer (e.g., Tris) by dialysis. Finally, the lipid nanoparticles were filtered.
(§2) Total RNA concentration and encapsulation efficiency was assessed using the RiboGreen RNA quantitation assay. RNA integrity pre and post formulation was monitored by Agilent Fragment Analyzer capillary gel electrophoresis. Malvern Zetasizer dynamic light scattering (DLS) was used to determine LNP size and polydispersity index (PDI). In vitro expression of the novel ionizable lipid nanoparticles was assessed in HEK293F and Hela cells similar to described in Example 72. Nuclear count and identification of cells stained positive for gene of interest was done on an Opera Phenix high content imager (PerkinElmer, USA).

HEK293F cells = assay: In vitro expression of novel ionizable lipid nanoparticles, high content imaging (CA HA modFlu mRNA); format: cell-based; conditions: LNP with CA HA modFlu mRNA
Procedure: (§3) Plated Hek293T or Hela cells were dosed with lipid nanoparticles in a total volume of 40 μl cell culture media and incubated overnight at 37° C. and 5% CO2. After fixation with 4% paraformaldehyde in PBS cells were washed in PBS containing 0.3% Triton-X100 and 3% BSA (w/v), followed by nuclear staining with Hoechst and antibody staining for the encoded gene of interest. Nuclear count and identification of cells stained positive for gene of interest was done on an Opera Phenix high content imager (PerkinElmer, USA).
as §1, §2

Hela cells = assay: as above; format: cell-based; conditions: LNP with CA HA modFlu mRNA
Procedure: as §3, §1, §2

[2] = Encapsulation efficiency, RiboGreen RNA quantitation assay (CA HA modFlu mRNA LNPs); format: physicochemical; conditions: LNP with CA HA modFlu mRNA
Procedure: as §1, §2

SMILES | Size (nm) [1] [nm] | PDI [1] | EC50 Hek293F (ng/well) (HEK293F cells) | EC50 Hela (ng/well) (Hela cells) | EE % [2] [%]
CCCCCCCC(CCCCCCC)C(=O)O[C@@H]1CC2(CCN(CCO)CC2)C[C@H]1OC(=O)C(CCCCCCC)CCCCCCC (racemic) [Example 52, rac-(2R,3R)-8-(2-hydroxyethyl)-8-azaspiro[4.5]decane-2,3-diyl bis(2-heptylnonanoate)] | 66 | 0.088 | 3.3 | 11.0 | 99
CCCCCCCC(CCCCCCC)C(=O)O[C@@H]1CC2(CCN(CCCO)C2)C[C@H]1OC(=O)C(CCCCCCC)CCCCCCC (racemic) [Example 53, rac-(7R,8R)-2-(3-hydroxypropyl)-2-azaspiro[4.4]nonane-7,8-diyl bis(2-heptylnonanoate)] | 89 | 0.090 | 2.3 | 29.5 | 94
CCCCCCCC(CCCCCCC)C(=O)O[C@@H]1CC2(CCN(CCCO)CC2)C[C@H]1OC(=O)C(CCCCCCC)CCCCCCC (racemic) [Example 54, rac-(2R,3R)-8-(3-hydroxypropyl)-8-azaspiro[4.5]decane-2,3-diyl bis(2-heptylnonanoate)] | 71 | 0.101 | 1.5 | 3.6 | 98
CCCCCCCC(CCCCCCC)C(=O)O[C@@H]1CC2(CCN(CCCNc3c(NC)c(=O)c3=O)CC2)C[C@H]1OC(=O)C(CCCCCCC)CCCCCCC (racemic) [Example 55, rac-(2R,3R)-8-(3-((2-(methylamino)-3,4-dioxocyclobut-1-en-1-yl)amino)propyl)-8-azaspiro[4.5]decane-2,3-diyl bis(2-heptylnonanoate)] | 65 | 0.124 | 21.4 | 45.0 | 100
CCCCCCCC(CCCCCCC)C(=O)O[C@@H]1CC2(CCN(CCCCCO)CC2)C[C@H]1OC(=O)C(CCCCCCC)CCCCCCC (racemic) [Example 56, rac-(2R,3R)-8-(5-hydroxypentyl)-8-azaspiro[4.5]decane-2,3-diyl bis(2-heptylnonanoate)] | 81 | 0.063 | 0.60 | 0.96 | 98
CCCCCCCCC(CCCCCCCC)C(=O)O[C@@H]1CC2(CCN(CCCCO)CC2)C[C@H]1OC(=O)C(CCCCCCCC)CCCCCCCC (racemic) [Example 59, rac-(2R,3R)-8-(4-hydroxybutyl)-8-azaspiro[4.5]decane-2,3-diyl bis(2-octyldecanoate)] | 80 | 0.091 | 2.3 | 34.6 | 97
CCCCCCCCCCCCC(CCCCCCC)C(=O)O[C@@H]1CC2(CCN(CCCCO)CC2)C[C@H]1OC(=O)C(CCCCCCC)CCCCCCCCCCCC (mixture of isomers) [Example 60, rac-(2R,3R)-8-(4-hydroxybutyl)-8-azaspiro[4.5]decane-2,3-diyl bis(2-heptyltetradecanoate)] | 94 | 0.117 | 1.6 | >50 | 98
CCCCCCCCC(CCCCCC)C(=O)O[C@@H]1CC2(CCN(CCCCO)CC2)C[C@H]1OC(=O)C(CCCCCC)CCCCCCCC (mixture of isomers) [Example 61, rac-(2R,3R)-8-(4-hydroxybutyl)-8-azaspiro[4.5]decane-2,3-diyl bis(2-hexyldecanoate)] | 77 | 0.094 | 1.0 | 1.6 | 99
CCCCCCCC(CCCCCCC)OC(=O)CCC(=O)O[C@@H]1CC2(CCN(CCCCO)CC2)C[C@H]1OC(=O)CCC(=O)OC(CCCCCCC)CCCCCCC (racemic) [Example 62, rac-O,O′-((2R,3R)-8-(4-hydroxybutyl)-8-azaspiro[4.5]decane-2,3-diyl) di(pentadecan-8-yl) disuccinate] | 161 | 0.090 | 0.36 | 1.0 | 99
CCCCCCCC(CCCCCCC)OC(=O)CCCCCC(=O)O[C@@H]1CC2(CCN(CCCCO)CC2)C[C@H]1OC(=O)CCCCCC(=O)OC(CCCCCCC)CCCCCCC (racemic) [Example 63, rac-O′^1,O^1-((2R,3R)-8-(4-hydroxybutyl)-8-azaspiro[4.5]decane-2,3-diyl) 7,7′-di(pentadecan-8-yl) di(heptanedioate)] | 107 | 0.060 | 0.39 | 0.58 | 99
CCCCCCCC(CCCCCCC)C(=O)OCCCCCC(=O)O[C@@H]1CC2(CCN(CCCCO)CC2)C[C@H]1OC(=O)CCCCCOC(=O)C(CCCCCCC)CCCCCCC (racemic) [Example 64, rac-(((2R,3R)-8-(4-hydroxybutyl)-8-azaspiro[4.5]decane-2,3-diyl)bis(oxy))bis(6-oxohexane-6,1-diyl) bis(2-heptylnonanoate)] | 110 | 0.056 | 0.64 | 0.69 | 99
CCCCCCCCC(CCCCC)C(=O)O[C@@H]1CC2(CCN(CCCCO)CC2)C[C@H]1OC(=O)C(CCCCC)CCCCCCCC (mixture of isomers) [Example 65, rac-(2R,3R)-8-(4-hydroxybutyl)-8-azaspiro[4.5]decane-2,3-diyl bis(2-pentyldecanoate)] | 123 | 0.038 | 0.35 | 0.57 | 97
CCCCCCCCC(CCCCCCC)C(=O)O[C@@H]1CC2(CCN(CCCCO)CC2)C[C@H]1OC(=O)C(CCCCCCC)CCCCCCCC (mixture of isomers) [Example 66, rac-(2R,3R)-8-(4-hydroxybutyl)-8-azaspiro[4.5]decane-2,3-diyl bis(2-heptyldecanoate)] | 78 | 0.146 | 1.1 | 2.2 | 97
CCCCCCCCCC(CCCCCC)C(=O)O[C@@H]1CC2(CCN(CCCCO)CC2)C[C@H]1OC(=O)C(CCCCCC)CCCCCCCCC (mixture of isomers) [Example 67, rac-(2R,3R)-8-(4-hydroxybutyl)-8-azaspiro[4.5]decane-2,3-diyl bis(2-hexylundecanoate)] | 89 | 0.127 | 1.4 | 2.0 | 96
CCCCCCCCC(CCCCCC)C(=O)O[C@@H]1CC2(CCN(CCCCO)CC2)C[C@H]1OC(=O)C(CC)CCCCCCC (mixture of isomers) [Example 70, rac-(2R,3R)-3-((2-ethylnonanoyl)oxy)-8-(4-hydroxybutyl)-8-azaspiro[4.5]decan-2-yl 2-hexyldecanoate] | 116 | 0.110 | 3.0 | 1.2 | 98
